Laboratory results reported in patent publication US11351134B2, “Small molecule agents, compositions, and formulations, for internal use, displaying inhibitory activity against gram-positive and/or gram-negative organisms” (NATUREZA, INC., priority 2017, dated 2022).
Where two headings read alike, the source gives them in different places.

Assays:
E. coli = test: Broth microdilution MIC of lecithin/chitosan particle compositions; type: cell-based; settings: maximum concentration tested 10 mg/ml; for MIC: Escherichia coli
Procedure: (§1) Initially, to determine basic characteristics, each active component was separately mixed, generally under agitated conditions, with water, and each was miscible with water. Each, after being mixed with water, was tested in a broth microdilution assay, against a variety of bacteria using amounts of the each of the lauric acid derivatives, ranging from about 0.0009 wt. % to about 8 wt. %. The bacteria included Escherichia coli, and Staphylococcus aureus (including MRSA strains). The minimum inhibitory concentration (MIC) needed to prevent growth of the target bacteria was evaluated based on a method published by Clinical Laboratory Standards Institute (CLSI), broth microdilution method M-07 (M07). […] Each of the samples containing one of the lauric acid derivatives was compared with a positive control, decanoic acid.
(§2) For TABLES 1 to 3, compositions were generally prepared as described above, and as further outlined in this paragraph. For these examples, the active component, as a lauric acid derivative or lauric acid, was suspended in an organic solvent, chloroform, and then mixed with water, under robust agitation. The amount of water to the amount of chloroform was at least about 2:1, and could be as high as 10:1. Chloroform was then evaporated (e.g., under vacuum using a freeze dryer). After removal of the chloroform, a 2.2% lecithin solution in an acetate buffer (e.g., 98 mM acetic acid and 2 mM sodium acetate) was prepared and added, so the final amount of the active component was about 1 part active component mixture and about 9 parts of the 2.2% lecithin solution. Of course, it is noted that other ranges to achieve final amount of the active component as described above (e.g., active component mixture and lecithin solution) may also be utilized. Cholesterol could also be optionally added. The mixture of lecithin and the active component was mixed and sonicated, and then a solution of about 1.5% chitosan was added. Thereafter, the entirety of the mixture containing the lecithin and the active component was further blended, in which a final ratio was about 1 part active component to about 9 parts of the 2.2% lecithin solution to about 10 parts of the 1.5% chitosan solution. The pH was then varied, to a pH of 5, or a pH of 7, or a pH of 9. In some mixtures having a pH of 7, a chemical agent imparting a positive charge to the chitosan was included in a form of glycol chitosan. In these tests, the chemical agent used was glycol. In these examples, the amount of chemical agent, glycol was about one molecule glycol moiety to one molecule chitosan sacharide unit; higher amounts of glycol moieties are also acceptable, while lower amounts of glycol moieties were often found to decrease overall inhibitory activity associated with a composition when formed and tested in vitro. It is noted that negatively charged chitosan containing particles were prepared. […] After mixing, the mixtures could each be filtered through a […] filter. In some tests, the mixtures were sonicated before filtering. Sonication produced small particles. In some studies, particles were freeze dried as a powder (generally, after mixing, sonicating and filtering).
(§3) The positive controls were prepared and evaluated in a similar manner. All prepared samples were tested using a broth microdilution test.

S. epidermidis = test: as above; type: cell-based; settings: Staphylococcus epidermidis; lecithin/chitosan particle composition; prep. mixture pH 5 or pH 7; maximum concentration tested 10 mg/ml; read-out: MIC (mg/ml) for S. epidermidis (chitosan prep. mixture was at pH 5 or at pH 7)
Procedure: as §1, §2, §3

Escherichia coli = test: Broth microdilution (CLSI M07) of active component mixed with water only; type: cell-based; settings: active component mixed with water only (miscible state); about 0.0009 wt. % to about 8 wt. %
Procedure: as §1

[1] = system: Staphylococcus aureus (including MRSA strains); test: as above; type: cell-based; settings: active component mixed with water only (miscible state); about 0.0009 wt. % to about 8 wt. %
Procedure: as §1

[2] = system: Gram-positive pathogens and Gram-negative pathogens; test: In vitro inhibitory activity of chitosan- or carrier-containing particles; type: cell-based; settings: synthesis (with chitosan) at pH 7 with positively charged chitosan
Description: as §2, §3
This also occurs when the chitosan- or carrier-containing particle includes an active component that has a log P value that is less than 4 and includes a methyl and/or ethyl side chain (e.g., 12-amino-1-dodecanoic acid methyl ester). […]

[3] = type: in vivo; settings: mice, oral capsules approximately 4 mg active component in chitosan-containing particles, three times per day for seven days
Description: Laboratory trials have shown that no resistance has developed in pathogens exposed to the compositions described herein, even with long term, repeated exposure (data not shown). In addition, no intrinsic resistance can or has been detected in target pathogens. […] A placebo group is also included, in which a group of 10 mice are given a placebo set of capsules, orally, three times per day and continued for seven days, each of the placebo set of capsules containing similarly prepared chitosan-containing particles without an active component, the preparation being generally as described herein. Initial mice have been infected with Salmonella typhimurium prior to oral delivery of one of the set of capsules. The capsules may be vegetable capsules. The capsules may have an enteric coating. For delivery, a formulation may be prepared in a manner understood in the relevant art. For delivery, a formulation may be in at least any one or more of the following forms: liquid, capsule, dried powder, mist, and the like. For delivery, the formulation will contain pharmaceutical grade materials, including one or more excipients and or fillers for internal and/or topical delivery in sufficient amounts known to those of skill in the relevant art. Flavors, colors, sugars, sugar-substitutes, and the like may also be included in any of the formulations, as is understood to those of skill in the relevant art.

## COC(=O)CCCCCCCCCCCN.Cl [12-amino-1-dodecanoic acid methyl ester HCl]
E. coli; lecithin/chitosan particle composition, prep. mixture pH 9, read-out: MIC (mg/ml) for E. coli (chitosan prep. mixture was at pH 9)
  MIC: 10 mg/mL
E. coli; lecithin/glycol chitosan particle composition, prep. mixture pH 7, read-out: MIC (mg/ml) for E. coli (chitosan prep. mixture was at pH 7 with glycol chitosan)
  MIC: 0.8 mg/mL
E. coli; lecithin/chitosan particle composition, prep. mixture pH 5 or pH 7
  MIC (mg/ml) for E. coli (chitosan prep. mixture was at pH 5 or at pH 7): — (no inhibitory activity)
S. epidermidis
  MIC: 10 mg/mL
Escherichia coli
  Inhibitory activity against Gram-negative bacteria (e.g., E. coli): does not, in the miscible state, demonstrate inhibitory activity
[1]
  Inhibitory activity against Gram-positive bacteria (e.g., S. aureus): does not, in the miscible state, demonstrate inhibitory activity
[2]
  Inhibitory activity against both Gram-positive pathogens and Gram-negative pathogens: stronger inhibitory activity as well as broad spectrum activity
[3]
  Safety in animal trials: no safety concerns
